Test results taken from patent US20060204547A1, “Drug delivery stent with extended in vivo release of anti-inflammatory” (Conor Medsystems, Inc., priority 2005, published 2006).

Test: in vivo Pimecrolimus release from stent implanted in porcine model, residual drug load by HPLC
Settings: PLGA matrix reservoir stent, FIG. 4, porcine
Source text: In the example of FIG. 4, a stent is cut from a cobalt chromium alloy according to the pattern shown in FIGS. 1 and 2 and Pimecrolimus is loaded in a PLGA matrix within reservoirs in the stent. The drug and matrix are arranged for directional delivery of the drug primarily to the mural side of the stent. The in vivo drug release rate is programmed by providing different concentrations of drug in different regions of the matrix similar to the regions shown in FIG. 3, with a luminal region 50 of primarily PLGA, a middle region 60 of about 75% Pimecrolimus and about 25% PLGA, and a mural region 70 of about 95% Pimecrolimus and about 5% PLGA. The reservoirs are filled, by volume, with about 20-25% base or luminal region, 40-45% middle region, and 25-30% mural region. The in vivo drug releases described herein are normalized for a 3.0 mm diameter×16 mm long expanded stent which has almost 500 reservoirs and a total drug volume of about 0.54 mm^3.
The measurement of in vivo Pimecrolimus release from a stent can be performed according to the following Example. The in vivo release from other implantable medical devices can be performed in a similar manner by removal of tissue and measurement of total drug load and release kinetics by high pressure liquid chromatography (HPLC).
Stents are implanted in a porcine model and explanted at selected time points by removing the entire artery section. The expanded stents are labeled and frozen. The tissue is removed from the stent by slicing the tissue on the outside of the stent lengthwise, inverting the tissue, and removing the tissue by cutting and turning the tissue inside out. The stent may still be covered by a tough elastic membrane which is then removed by splitting the membrane and peeling it off the stent. For longer time points, there will also be a tube of tissue inside the stent. This tube is separated from the stent with tweezers, turned inside out and pulled out of the stent.
The following is the test procedure for generating the in vivo release curves for Pimecrolimus in FIG. 4.
The total drug load (TDL) of Pimecrolimus from a stent is determined by extracting all the polymer and drug from the stent in the solvent acetonitrile. The amount of Pimecrolimus in a solution sample is determined by High Pressure Liquid Chromatography (HPLC). The following conditions are used:
The in vivo release kinetic (RK) for Pimecrolimus from a stent is determined by running the TDL for multiple explanted time points. The TDL for the explanted samples is subtracted from the TDL of an unimplanted stent to determine the amount of Pimecrolimus released at each of the explanted time points.

in vivo cumulative release, percent of total Pimecrolimus loaded on stent (4 hour): about 10%
in vivo cumulative release, percent of total Pimecrolimus loaded on stent (24 hour): about 25%
in vivo cumulative release, percent of total Pimecrolimus loaded on stent (2 day): about 40%
in vivo cumulative release, percent of total Pimecrolimus loaded on stent (8 day): about 50%
in vivo cumulative release, percent of total Pimecrolimus loaded on stent (30 day): about 70%
in vivo cumulative release, percent of total Pimecrolimus loaded on stent (50 day): about 70%
SMILES: CC[C@@H]1/C=C(\C)C[C@H](C)C[C@H](OC)[C@H]2O[C@@](O)(C(=O)C(=O)N3CCCC[C@H]3C(=O)O[C@H](/C(C)=C/[C@@H]3CC[C@H](Cl)[C@H](OC)C3)[C@H](C)[C@@H](O)CC1=O)[C@H](C)C[C@@H]2OC [Pimecrolimus]
